The text below walks through data of patent publication US20180043059A1, “3D Ti-6Al-4V Structures with Hydrogel Matrix” (priority 2016, published 2018).

Entries after “also recorded” stand apart in the source; their conditions may differ. Where two headings read alike, the source gives them in different places.

Series [1] has as its system HUVECs. Description: Combinatorial dose of DFM and D(+) glucose, MTS viability, HUVECs. The format is cell-based, Human. Particulars: 5 mM glucose, 24 hours. The method, then: (§1) Cells that undergo hypoxia mimetic stress mediated by Hif-1α have been reported to increase their metabolic demands. To test how metabolic demands change in cells exposed to DFM, both HUVECs and MC3T3-E1 cells were exposed to 3.2 μM DFM, 5 mM D(+) glucose and a combination of 3.2 μM DFM+5 mM D(+) glucose for 24 hours. A negative control consisted of both cell types without treatment. The viability of cells was determined by MTS viability assay. The purpose of this approach is to determine whether D(+) glucose can be used as an additive in the hydrogel matrix to improve wound healing and help drive vascularization and osteogenesis process.

Series [2] relates to MC3T3-E1 cells. Description: Combinatorial dose of DFM and D(+) glucose, MTS viability, MC3T3-E1. The format is cell-based, mouse. The following applies: 5 mM glucose, 24 hours. As to the method:
as §1

For series [3], the system named is MC3T3-E1 pre-osteoblast cells.
Series [4] relates to MC3T3-E1 cells. Put plainly: Fluorescent microscopy of pre-osteoblasts grown in Ti-6Al-4V foam under DFM. The format is cell-based, mouse. The following applies: 3.2 μM DFM (low concentration), 21 days. As to the method:
Pre-osteoblasts seeded on foam structures were cultured for 7 days to test for similar cell behavior as reported by Nune et al. Cells were seeded at 200,000 cells/well in a 12 well plate, 1 mL total media volume and then stained with Hoechst 33342 cell nuclei dye. A second experiment was performed once the appropriate concentration of DFM was selected. Pre-osteoblasts are seeded at the previously described concentration in the same conditions but exposed to 3.2 μM DFM. Proliferation is observed after 21 days exposure. A second stain is performed with Vybrant® CFDA SE Cell Tracer Kit to visually determine the viability of cells without disturbing the layer of cells grown in the foams. Because the scaffold is solid metal, light cannot be transmitted through it if fully dense. However, due to the foam nature of the scaffold, light may be transmitted though the medium and a visible image can be obtained if the metal section is thin enough. Despite the fact that a thin section makes fluorescent microscopy feasible, since the scaffold is 3D, focus is lost in the z axis and there is a lack of clarity for morphological details. Improvements on microscopy can be done by using Confocal Microscopy instead of Fluorescent Microscopy in order to view in more detail cellular morphology and microcapillary formation. […]

Series [5] relates to MC3T3-E1 cells. Put plainly: Alizarin Red S (ARS) mineralization assay. The format is cell-based, mouse. From the text: Because it is expected that pre-osteoblasts differentiate into osteoblasts under a hypoxic condition, cells should mineralize calcium in the ECM. The study of mineralization of ECM can be viewed as a measure or potential for bone formation. In this regard, Alizarin Red Assay (ARS) (Sigma-Aldrich) is used qualitatively and quantitatively to indicate the presence of calcium in the matrix. […] The negative control for this experiment is cells grown in 3D printed foams in complete media with no added glutamate. After incubation, the samples are washed carefully with PBS without disturbing the cell layer and fixed with 4% paraformaldehyde for 30 minutes. The 3D foam structures were then stained with alizarin red (pH˜4.1) in the dark and at room temperature for 30 minutes. Samples are qualitatively studied via light microscope after rinsing with PBS. The calcium nodules should appear red. To conduct quantitative analysis, 10% cetyl pyridinium chloride will be added to remove the alizarin red stain. The absorbance of the solution is measured at 570 nm OD with a spectrophotometric microplate reader.

Series [6] concerns HUVECs. Put plainly: Induction of angiogenesis (capillary formation) in Matrigel and in foams with gel. In kind it is cell-based, Human. As to the method: It has been previously reported that MC3T3-E1 pre-osteoblast cells undergo differentiation and proliferation when grown in porous foams in glutamine containing media. It has been extensively reported that endothelial cells are able to form capillaries in gels when exposed to DFM [28]. In this experiment, a live angiogenesis monitoring experiment is performed in order to analyze capillarity maturation and cell survival. This analysis is achieved by staining HUVECs with PHK26 Red Fluorescent Dye (Sigma) and MC3T3-E1 cells with PKH67 Green fluorescent dye (Sigma). Both dyes stain cell membranes in an unspecific way, while maintaining cellular viability for an extended period of time. MC3T3-E1 cells are grown in foams as described above, but under hypoxic conditions (3.2 μM DFM). The Ti-6Al-4V foams are pre-incubated with pre-osteoblasts for a total of 7 days, with a negative hypoxia control being cells without any DFM. The cells grown on the foams and gel are monitored throughout the duration of this experiment. The foams are removed from the wells and placed in a 12 well plate and Matrigel® (Corning Life Sciences) will be added until the foam is completely covered. In order to observe microcapillarity formation upon exposure of HUVECs to DFM, the manufacturer specifications are followed. Briefly, Matrigel® is thawed according to specifications (4° C. overnight) and added to a 24 well cell culture plate and allowed to gelate also according to specifications (30-60 minutes at 37° C.). […] The cell suspension is incubated at 37° C., 5% CO2 for 16 to 18 hours on the Matrigel coated plate for 16-18 hours. The formation of microcapillaries is measured by confocal microscopy.

In series [7] the test system is HUVECs. The following applies: cited from earlier work.
Series [8] deals with Hif-1α. Put plainly: Western blot analysis of Hif-1α in HUVECs exposed to DFM. In kind it is cell-based, Human. As to the method:
To further quantify the expression of specific proteins, a western blot analysis is performed for Hif-1α and VEGF165. The western blot analysis was made using the cell lysate previously described. A Sodium Dodecyl Sulfate-Polyacrylamide Gel Electrophoresis (SDS-PAGE) was made (7.5% acrylamide for Hif-1α (93 kDa) and 12% acrylamide for VEGF165 (38 kDa)). The separated proteins are then transferred to a PVDF membrane. The Hif-1α antibody at a 1:1,000 dilution in 1% BSA in 1×TBST buffer was incubated for one hour at room temperature, followed by three 10 min washes with TBST. A secondary anti-rabbit IgG HRP conjugated antibody was incubated for 30 minutes at room temperature, followed also by subsequent washes with TB ST.
(In general: A western blot detects proteins with antibodies after separation by electrophoresis.)

Series [9] relates to HUVECs. Put plainly: Total protein content (Bradford). In kind it is cell-based, Human. Particulars: endothelial cells exposed to DFM. The method, then:
Cells are grown for 6 h, 24 h and 48 h in the presence of DFM at the previously specified 1:5 dilutions. After the desired time periods they are washed with cold 1×PBS and lysed with Radioimmunoprecipitation (RIPA) protein lysis buffer (0.2% Triton X-100+protease inhibitor cocktail) for 30 min in an ice bath. The total protein content in the cells is estimated using the Bradford spectrophotometric protein assay. Briefly, 10 μL of the cell lysate will be mixed with 100 μL of Bradford Reagent (Sigma) and re-suspended to homogenize the solution on a 96 well plate. The absorbance will be measured at 595 nm. A standard plot of absorbance as a function of bovine serum albumin (BSA) concentration will be obtained to determine the concentration value of the experimental and control samples.

Series [10] has as its system MC3T3-E1 cells.

As to `O=C[C@H](O)[C@@H](O)[C@H](O)[C@H](O)CO` [D(+) glucose], the “viability response to additional D(+) glucose” value in series [1] (compared with MC3T3-E1, listed as D(+) Glucose) is recorded as “Augments Viability Faster”; in [1] (compared with MC3T3-E1, listed as glucose), “more positive response”; in [2] it was “not”.
As to `CC(=O)N(O)CCCCCNC(=O)CCC(=O)N(O)CCCCCNC(=O)CCC(=O)N(O)CCCCCN.CS(=O)(=O)O` [DFM, Deferoxamine Mesylate], the “cellular metabolism (MTS) across drug concentrations” value in series [3] (24 hours exposure) was “almost no variation in cellular metabolism”. The MTS metabolism entry in series [3] (exposure equal or longer than 72 hours) is on record as “greatly increases”. For the same compound, in series [3] (lower concentrations), the “viability at lower concentrations (summary)” value is recorded as “E1 cells exposed to DFM. Viability increases”. In addition, the “cellular viability (summary)” value in [3] (mouse) is recorded as “Cellular viability does not decrease in MC3T3-”. Also, in [4], the “proliferation of pre-osteoblasts in the foam (Hoechst 33342 staining)” value is given as “proliferating”. Besides, the “cellular production of hydroxyapatite, cells grown in foams” value in series [5] (Ti-6Al-4V foams, 3.2 μM DFM) is “enhanced; also recorded: DFM enhances the cellular production of”. The “synthesis levels of hydroxyapatite versus control” value in [5] (foams, 3.2 μM DFM, 14 days) is “increase on par in both settings”. Moreover, the “amount of cellular hydroxyapatite versus control” value in [5] (foams, 3.2 μM DFM, 21 days, FIG. 6) is on record as “dramatically increases”. In series [5] (foams, 3.2 μM DFM, initially (7 days)), the “amount of hydroxyapatite versus control” value was “comparatively similar amounts of hydroxyapatite to control cells”. In addition, the “production of mineralized calcium / hydroxyapatite, cells grown in plates” value in [5] (plates) was “increases the production of mineralized calcium; also recorded: DFM enhances the cellular production of”. The “expression of mineralized calcium (ARS)” value in [5] (plates, 640 nM DFM, 21 days, FIG. 5) is reported as “highest expression of mineralized calcium”. In addition, the “expression of hydroxyapatite compared to control cells” value in [5] (plates, 640 nM DFM, every instance (7, 14, 21 days)) was “always in greater amount”. In addition, in series [6] (HUVECs exposed to 2 mM DFM in Matrigel), the “maintenance of capillary structure” value is given as “maintain their structure for an extended period of time”. Further, the “capillary formation in Matrigel” value in [6] (HUVECs exposed to 2 mM DFM, 18 hour period, not apparent in control without DFM) is “readily formed capillaries; also recorded: HUVECs readily undergo migration to form”. For the same compound, the “vascular structure formation in foams with gel” value in series [6] (Ti-6Al-4V foam + Matrigel with pre-incubated MC3T3-E1, HUVECs treated with 2 mM DFM, FIG. 7) was “HUVECs readily undergo migration to form”. The “DFM concentration that can stimulate a survival response” value in series [7] (previous reports) was about 10 µM. Moreover, in series [7] (previously reported), the “DFM concentration at which HUVECs undergo angiogenesis” value is “approximately 10 μM”. The “total intracellular Hif-1α bands” value in series [8] (48 hours exposure) is on record as “still producing definitive bands”. The “Hif-1α levels with increasing DFM concentration (summary)” value in series [8] (HUVECs) was “Hif-1α levels increased with increasing DFM”. In series [8] (high doses (2 mM) vs normoxia), the Hif-1α expression result is reported as “notably increase”. Moreover, the “levels of total protein synthesized” value in [9] is “No obvious changes”. Moreover, the “cellular proliferation (cell count)” value in [10] (24 hour exposure, remaining dilutions, compared to unexposed control) is “constant cell population numbers, with a slight decrease in numbers”; in [10] (lowest concentrations (3.2 μM and 640 nM)), “observable increase in proliferation”.
On to CoCl2, for which, in series [3], the MTS metabolism result is “greatly increases”, the “cellular metabolism (MTS) across drug concentrations” value is “almost no variation in cellular metabolism” and the “viability at lower concentrations (summary)” value is listed as “E1 cells exposed to DFM. Viability increases”.
